Consider nine molecules from paper PMC8161026, “Synthesis and Anticancer Activity Evaluation of 5-[2-Chloro-3-(4-nitrophenyl)-2-propenylidene]-4-thiazolidinones” (Molecules, 2021).

Series [1] can be described thus: in vitro. To be noted: human. The method, then: (§1) Another part of our study was to determine the influence of compounds 2f, 2i, 2j, and 2h on normal human blood lymphocytes (Figure 5). […] Thus, normal blood lymphocytes are blood cells, as well as cells of leukemia cell lines, therapeutic index (TI) of compounds 2f, 2h, and 2j was calculated as GI50 (normal blood lymphocyte)/GI50 (leukemia cell line) (Table 5).
(§2) Figure 5 Human lymphocyte viability after 48 h of 2f, 2i, 2j, 2h, and Ciminalum drug exposure was estimated by MTT assay.
(§3) The assay was performed by using 3-(4,5-dimethylthiazole-2-yl)- 2,5-diphenyltetrazolium bromide (MTT). Confluent cells, cultured for 24 h with 0.1, 1, 5, 10, 20, 30, and 100 µM concentrations of studied compounds in 24-well plates were washed with PBS. MTT was dissolved in PBS, and 25 µL were added to each well. Plates were incubated for 4 h at 37 °C in 5% CO2 in an incubator. The medium with MTT was removed, and 1 mL of DMSO was added to the attached cells. Furthermore, cells were incubated for 5–10 min in RT and then 10 µl of Sorensen buffer was added to each well. The absorbance of converted dye in living cells was measured at a wavelength of 570 nm. The cell viability of breast cancer cells, gastric cancer cells, and human colon cancer cells cultured in the presence of ligands was calculated as percent of control cells.
(§4) First, 20 mL of venous blood was taken from volunteers (Ethical protocol number 2, 27 January 2019) and collected in the presence of 200 μL of undiluted fresh heparin (1/100). Sterile blood was diluted 2 times with 0.9% NaCl under the sterile conditions. Isolation of lymphocytes was performed in a density gradient of ficol-verografin using the protocol of the manufacturer (Lympoprep, NYCOMED PHARMA AS, Oslo Norway). The resulting lymphocytes were resuspended in the RPMI-1640 medium and cultured for several days (up to 10 days). To separate the lymphocytes from the monocytes, cell suspension was left for 24 h. After 24 h of culture, monocytes were attached, while lymphocytes were transferred to a fresh Falcon tube (15 mL). To stimulate the proliferation of lymphocytes, they were cultured on CD3+ antibody-coated plastic plate in the RPMI-1640 medium supplemented with 20% FBS.

The subject of series [2] is MCF-7 (breast cancer). Briefly: MTT cell viability assay. The format is cell-based. To be noted: Homo sapiens, MCF7; MCF-7, MTT, 24 h. The method, then: (§5) In the second stage of the research, Ciminalum-thiazolidinone hybrids were investigated for antitumor activity on the lines of gastric cancer (AGS), human colon cancer (DLD-1), and breast cancers (MCF-7 and MDA-MB-231). The study was performed in the MTT assay according to the method described previously. The studied cancer line was sensitive to the action of the studied compounds that inhibited its growth in micromolar ranges of GI50. The hit compounds that inhibited the growth of all four cancer lines with the lowest GI50 values were [5-[2-chloro-3-(4-nitrophenyl)prop-2-enylidene]-rhodanines 2c, 2d, 2h, and 2i (Table 4).
On the technique in general: Tetrazolium dyes change colour on reduction, which living cells bring about.

Series [3] concerns AGS (gastric cancer). The series can be described thus: MTT cell viability assay. The format is cell-based. To be noted: Homo sapiens, 24 h. On the procedure:
as §5

The test system of series [4] is MDA-MB-231 (breast cancer). Briefly: MTT cell viability assay. The format is cell-based. To be noted: Homo sapiens; MDA-MB-231, MTT, 24 h. The method, then: as §5
The subject of series [5] is DLD-1 (human colon cancer). The series can be described thus: MTT cell viability assay. The format is cell-based. The conditions noted are these: DLD-1, MTT, 24 h. On the procedure: as §5
Series [6] relates to normal human blood lymphocytes. The series can be described thus: in vitro. On the procedure: as §1, §2, §3, §4
Series [7] deals with breast cancer lines MCF-7 and MDA-MB-231. Briefly: MTT cell viability assay, both breast cancer lines. The format is cell-based. The conditions noted are these: Homo sapiens; MCF-7 and MDA-MB-231, MTT; read-out: GI50 level. On the procedure:
as §5

Series [8] relates to Jurkat T-cells. Further details: method as in doi:10.7124/bc.00003D. The conditions noted are these: cited from earlier work.

In [1], `O=C/C(Cl)=C/c1ccc([N+](=O)[O-])cc1` [Ciminalum, (2Z)-2-chloro-3-(4-nitrophenyl)prop-2-enal, reference compound] had a GI50 at 48 h of 10.4 µM.
The molecule `O=C1NC(=O)/C(=C/C(Cl)=C/c2ccc([N+](=O)[O-])cc2)S1` [Compound 2a, 5-[(Z,2Z)-2-Chloro-3-(4-nitrophenyl)-2-propenylidene]-2,4-thiazolidinedione] displayed a melting point greater than 270 °C. Also, the GI50 in series [2] was 18 µM. The molecule further returned a GI50 in series [3] of 18.7 µM. In series [4], the GI50 was 13.9 µM. In [5], the GI50 amounted to 14 µM.
For `O=C(NN1C(=O)/C(=C/C(Cl)=C/c2ccc([N+](=O)[O-])cc2)SC1=S)c1csc2c1CCCC2` [Compound 2d, 5-[(Z,2Z)-2-Chloro-3-(4-nitrophenyl)-2-propenylidene]-4-oxo-3-(4,5,6,7-tetrahydrobenzo[b]thiophen-3-ylcarboxamido)-2-thioxo-4-thiazolidinone] the same measures were greater than 230 °C, 4.45 µM, 4.08 µM, 3.11 µM and 5.47 µM.
Regarding `O=C(Cc1ccccc1Nc1c(Cl)cccc1Cl)NN1C(=O)/C(=C/C(Cl)=C/c2ccc([N+](=O)[O-])cc2)SC1=S` [Compound 2e, N^1-{5-[(Z,2Z)-2-Chloro-3-(4-nitrophenyl)-2-propenylidene]-4-oxo-2-thioxothiazolidin-3-yl}-2-[2-(2,6-dichloroanilino)phenyl]acetamide], the melting point was 257 to 258 °C. Moreover, growth in [2] was halved (GI50) at 17.9 µM. Also, the GI50 in series [3] came out at 17.1 µM. In series [4], the GI50 was 15.8 µM. Besides, halving of growth in [5] (GI50) required 16 µM.
Take `O=C1/C(=C/C(Cl)=C/c2ccc([N+](=O)[O-])cc2)SC(=S)N1CCS(=O)(=O)O` [Compound 2g, 2-{5-[(Z,2Z)-2-Chloro-3-(4-nitrophenyl)-2-propenylidene]-4-oxo-2-thioxothiazolidin-3-yl}-1-ethanesulfonic acid]: the melting point was greater than 260 °C. In addition, growth in [2] was halved (GI50) at 26.4 µM. In series [3], this molecule registered a concentration for 50% growth inhibition (GI50) of 18 µM. Further, in series [4], halving of growth (GI50) required 16.8 µM. In series [5], this molecule showed a GI50 of 27.5 µM. Further, the “toxicity toward normal human blood lymphocytes” value in series [6] is given as “low toxicity”.
`O=C(O)CCCCCN1C(=O)/C(=C/C(Cl)=C/c2ccc([N+](=O)[O-])cc2)SC1=S` [Compound 2i, 6-{5-[(Z,2Z)-2-Chloro-3-(4-nitrophenyl)-2-propenylidene]-4-oxo-2-thioxothiazolidin-3-yl}hexanoic acid] returned a melting point greater than 220 °C. The molecule further showed a GI50 in [2] of 1.73 µM. The molecule further registered a GI50 in series [3] of 3.2 µM. The molecule further showed a GI50 in series [4] of 0.95 µM. The molecule also registered a GI50 in series [5] of 9.22 µM. Further, the “toxicity toward normal human blood lymphocytes” value in [6] was “low toxicity”. Further, in series [1], the GI50 at 48 h was greater than 100 µM. For the same molecule, the GI50 in series [7] is 0.95 to 1.74 µM.
In turn, `O=C(O)CC(C(=O)O)N1C(=O)/C(=C/C(Cl)=C/c2ccc([N+](=O)[O-])cc2)SC1=S` (stereo not drawn) [Compound 2k, 2-{5-[(Z,2Z)-2-Chloro-3-(4-nitrophenyl)-2-propenylidene]-4-oxo-2-thioxothiazolidin-3-yl}succinic acid] yielded a melting point of 220 to 222 °C. The GI50 in series [2] was 18.1 µM. Moreover, in [3], the GI50 came out at 13.1 µM. This molecule also showed a GI50 in [4] of 15.3 µM. In addition, in series [5], halving of growth (GI50) required 10 µM.
The matching figures for `O=C(O)CCC(C(=O)O)N1C(=O)/C(=C/C(Cl)=C/c2ccc([N+](=O)[O-])cc2)SC1=S` (stereo not drawn) [Compound 2l, 2-{5-[(Z,2Z)-2-Chloro-3-(4-nitrophenyl)-2-propenylidene]-4-oxo-2-thioxothiazolidin-3-yl}pentanedioic acid]: 205 to 207 °C, 21.2 µM, 12.6 µM, 17.5 µM and 9.19 µM.
As to `O=C1NC(=N/c2ccc(F)cc2)/C(=C/C(Cl)=C/c2ccc([N+](=O)[O-])cc2)S1` [III], in series [8], the caspase-7 activation entry is on record as “weak”; the “cleavage of PARP-1 and DFF45” value is on record as “weak”.

For orientation: GI50 means the concentration at which growth is held to half of that of the control. The term melting point denotes the temperature, or range, at which the solid turns liquid.
